{"source": "patent US20170190671A1", "about": "“BIS(ARYL)CATECHOL DERIVATIVES AS HERBICIDES” (E I DU PONT DE NEMOURS AND COMPANY, priority 2014, published 2017)", "experiment_in_all_cases": "Test D postemergence", "assay_type_in_all_cases": "in vivo", "conditions_in_all_cases": "scale 0 to 100", "key": {"[1]": {"tested_on": "wild mustard (Sinapis arvensis)", "procedure,_shortened": "(§1)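 Visual injury scored 0–100 (0 = no effect, 100 = complete control) against controls 14 to 21 days after treatment in a controlled growth environment. Compounds were applied in surfactant-containing non-phytotoxic solvent, preemergence onto silt loam-sown seeds or postemergence onto 1- to 4-leaf plants.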"}, "[2]": {"tested_on": "Russian thistle (Salsola kali)", "procedure,_shortened": "as §1"}, "[3]": {"tested_on": "canarygrass (Phalaris minor)", "procedure,_shortened": "as §1"}, "[4]": {"tested_on": "deadnettle (henbit deadnettle, Lamium amplexicaule)", "procedure,_shortened": "as §1"}, "[5]": {"tested_on": "kochia (Kochia scoparia)", "procedure,_shortened": "as §1"}, "[6]": {"tested_on": "wild radish (Raphanus raphanistrum)", "procedure,_shortened": "as §1"}, "[7]": {"tested_on": "spring barley (Hordeum vulgare)", "procedure,_shortened": "as §1"}, "[8]": {"tested_on": "Italian ryegrass (Lolium multiflorum)", "procedure,_shortened": "as §1"}, "[9]": {"tested_on": "wild buckwheat (Polygonum convolvulus)", "procedure,_shortened": "as §1"}, "[10]": {"tested_on": "winter barley (Hordeum vulgare)", "procedure,_shortened": "as §1"}, "[11]": {"tested_on": "spring wheat (Triticum aestivum)", "procedure,_shortened": "as §1"}, "[12]": {"tested_on": "green foxtail (Setaria viridis)", "procedure,_shortened": "as §1"}, "[13]": {"tested_on": "bluegrass (annual bluegrass, Poa annua)", "procedure,_shortened": "as §1"}, "[14]": {"tested_on": "windgrass (Apera spica-venti)", "procedure,_shortened": "as §1"}, "[15]": {"tested_on": "oilseed rape (Brassica napus)", "procedure,_shortened": "as §1"}, "[16]": {"tested_on": "blackgrass (Alopecurus myosuroides)", "procedure,_shortened": "as §1"}, "[17]": {"tested_on": "chamomile (scentless chamomile, Matricaria inodora)", "procedure,_shortened": "as §1"}, "[18]": {"tested_on": "lambsquarters (Chenopodium album)", "procedure,_shortened": "as §1"}, "[19]": {"tested_on": "field poppy (Papaver rhoeas)", "procedure,_shortened": "as §1"}, "[20]": {"tested_on": "pigweed (Amaranthus retroflexus)", "procedure,_shortened": "as §1"}, "[21]": {"tested_on": "cutleaf geranium (Geranium dissectum)", "procedure,_shortened": "as §1"}}}
{"molecule": "Fc1cnc(Oc2c(F)cccc2Oc2ncc(Cl)cn2)nc1", "note": "[Compound 23]", "values": [{"measurement": "Plant response rating, Mustard, Wild", "setting": "[1]; 16 g ai/ha", "result": 25}, {"measurement": "Plant response rating, Mustard, Wild", "setting": "[1]; 31 g ai/ha", "result": 35}, {"measurement": "Plant response rating, Mustard, Wild", "setting": "[1]; 62 g ai/ha", "result": 65}, {"measurement": "Plant response rating, Mustard, Wild", "setting": "[1]; 125 g ai/ha", "result": 95}, {"measurement": "Plant response rating, Russian Thistle", "setting": "[2]; 16 g ai/ha", "result": 0}, {"measurement": "Plant response rating, Russian Thistle", "setting": "[2]; 31 g ai/ha", "result": 5}, {"measurement": "Plant response rating, Russian Thistle", "setting": "[2]; 62 g ai/ha", "result": 10}, {"measurement": "Plant response rating, Russian Thistle", "setting": "[2]; 125 g ai/ha", "result": 15}, {"measurement": "Plant response rating, Canarygrass", "setting": "[3]; 16 g ai/ha", "result": 10}, {"measurement": "Plant response rating, Canarygrass", "setting": "[3]; 31 g ai/ha", "result": 20}, {"measurement": "Plant response rating, Canarygrass", "setting": "[3]; 62 g ai/ha", "result": 25}, {"measurement": "Plant response rating, Canarygrass", "setting": "[3]; 125 g ai/ha", "result": 55}, {"measurement": "Plant response rating, Deadnettle", "setting": "[4]; 16 g ai/ha", "result": 10}, {"measurement": "Plant response rating, Deadnettle", "setting": "[4]; 31 g ai/ha", "result": 20}, {"measurement": "Plant response rating, Deadnettle", "setting": "[4]; 62 g ai/ha", "result": 55}, {"measurement": "Plant response rating, Deadnettle", "setting": "[4]; 125 g ai/ha", "result": 70}, {"measurement": "Plant response rating, Kochia", "setting": "[5]; 16 g ai/ha", "result": 15}, {"measurement": "Plant response rating, Kochia", "setting": "[5]; 31 g ai/ha", "result": 20}, {"measurement": "Plant response rating, Kochia", "setting": "[5]; 62 g ai/ha", "result": 30}, {"measurement": "Plant response rating, Kochia", "setting": "[5]; 125 g ai/ha", "result": 50}, {"measurement": "Plant response rating, Radish, Wild", "setting": "[6]; 16 g ai/ha", "result": 25}, {"measurement": "Plant response rating, Radish, Wild", "setting": "[6]; 31 g ai/ha", "result": 80}, {"measurement": "Plant response rating, Radish, Wild", "setting": "[6]; 62 g ai/ha", "result": 80}, {"measurement": "Plant response rating, Radish, Wild", "setting": "[6]; 125 g ai/ha", "result": 85}, {"measurement": "Plant response rating, Barley, Spring", "setting": "[7]; 16 g ai/ha", "result": 0}, {"measurement": "Plant response rating, Barley, Spring", "setting": "[7]; 31 g ai/ha", "result": 5}, {"measurement": "Plant response rating, Barley, Spring", "setting": "[7]; 62 g ai/ha", "result": 5}, {"measurement": "Plant response rating, Barley, Spring", "setting": "[7]; 125 g ai/ha", "result": 10}, {"measurement": "Plant response rating, Ryegrass, Italian", "setting": "[8]; 16 g ai/ha", "result": 0}, {"measurement": "Plant response rating, Ryegrass, Italian", "setting": "[8]; 31 g ai/ha", "result": 5}, {"measurement": "Plant response rating, Ryegrass, Italian", "setting": "[8]; 62 g ai/ha", "result": 10}, {"measurement": "Plant response rating, Ryegrass, Italian", "setting": "[8]; 125 g ai/ha", "result": 25}, {"measurement": "Plant response rating, Buckwheat, Wild", "setting": "[9]; 16 g ai/ha", "result": 50}, {"measurement": "Plant response rating, Buckwheat, Wild", "setting": "[9]; 31 g ai/ha", "result": 70}, {"measurement": "Plant response rating, Buckwheat, Wild", "setting": "[9]; 62 g ai/ha", "result": 75}, {"measurement": "Plant response rating, Buckwheat, Wild", "setting": "[9]; 125 g ai/ha", "result": 75}, {"measurement": "Plant response rating, Barley, Winter", "setting": "[10]; 16 g ai/ha", "result": 0}, {"measurement": "Plant response rating, Barley, Winter", "setting": "[10]; 31 g ai/ha", "result": 5}, {"measurement": "Plant response rating, Barley, Winter", "setting": "[10]; 62 g ai/ha", "result": 5}, {"measurement": "Plant response rating, Barley, Winter", "setting": "[10]; 125 g ai/ha", "result": 5}, {"measurement": "Plant response rating, Wheat, Spring", "setting": "[11]; 16 g ai/ha", "result": 0}, {"measurement": "Plant response rating, Wheat, Spring", "setting": "[11]; 31 g ai/ha", "result": 5}, {"measurement": "Plant response rating, Wheat, Spring", "setting": "[11]; 62 g ai/ha", "result": 5}, {"measurement": "Plant response rating, Wheat, Spring", "setting": "[11]; 125 g ai/ha", "result": 10}, {"measurement": "Plant response rating, Foxtail, Green", "setting": "[12]; 16 g ai/ha", "result": 10}, {"measurement": "Plant response rating, Foxtail, Green", "setting": "[12]; 31 g ai/ha", "result": 10}, {"measurement": "Plant response rating, Foxtail, Green", "setting": "[12]; 62 g ai/ha", "result": 15}, {"measurement": "Plant response rating, Foxtail, Green", "setting": "[12]; 125 g ai/ha", "result": 20}, {"measurement": "Plant response rating, Bluegrass", "setting": "[13]; 16 g ai/ha", "result": 5}, {"measurement": "Plant response rating, Bluegrass", "setting": "[13]; 31 g ai/ha", "result": 10}, {"measurement": "Plant response rating, Bluegrass", "setting": "[13]; 62 g ai/ha", "result": 15}, {"measurement": "Plant response rating, Bluegrass", "setting": "[13]; 125 g ai/ha", "result": 35}, {"measurement": "Plant response rating, Windgrass", "setting": "[14]; 16 g ai/ha", "result": 10}, {"measurement": "Plant response rating, Windgrass", "setting": "[14]; 31 g ai/ha", "result": 10}, {"measurement": "Plant response rating, Windgrass", "setting": "[14]; 62 g ai/ha", "result": 15}, {"measurement": "Plant response rating, Windgrass", "setting": "[14]; 125 g ai/ha", "result": 20}, {"measurement": "Plant response rating, Oilseed Rape", "setting": "[15]; 16 g ai/ha", "result": 30}, {"measurement": "Plant response rating, Oilseed Rape", "setting": "[15]; 31 g ai/ha", "result": 65}, {"measurement": "Plant response rating, Oilseed Rape", "setting": "[15]; 62 g ai/ha", "result": 75}, {"measurement": "Plant response rating, Oilseed Rape", "setting": "[15]; 125 g ai/ha", "result": 95}, {"measurement": "Plant response rating, Blackgrass", "setting": "[16]; 16 g ai/ha", "result": 10}, {"measurement": "Plant response rating, Blackgrass", "setting": "[16]; 31 g ai/ha", "result": 20}, {"measurement": "Plant response rating, Blackgrass", "setting": "[16]; 62 g ai/ha", "result": 35}, {"measurement": "Plant response rating, Blackgrass", "setting": "[16]; 125 g ai/ha", "result": 55}, {"measurement": "Plant response rating, Chamomile", "setting": "[17]; 16 g ai/ha", "result": 0}, {"measurement": "Plant response rating, Chamomile", "setting": "[17]; 31 g ai/ha", "result": 0}, {"measurement": "Plant response rating, Chamomile", "setting": "[17]; 62 g ai/ha", "result": 0}, {"measurement": "Plant response rating, Chamomile", "setting": "[17]; 125 g ai/ha", "result": 5}, {"measurement": "Plant response rating, Lambsquarters", "setting": "[18]; 16 g ai/ha", "result": 10}, {"measurement": "Plant response rating, Lambsquarters", "setting": "[18]; 31 g ai/ha", "result": 30}, {"measurement": "Plant response rating, Lambsquarters", "setting": "[18]; 62 g ai/ha", "result": 60}, {"measurement": "Plant response rating, Lambsquarters", "setting": "[18]; 125 g ai/ha", "result": 60}, {"measurement": "Plant response rating, Field Poppy", "setting": "[19]; 16 g ai/ha", "result": 50}, {"measurement": "Plant response rating, Field Poppy", "setting": "[19]; 31 g ai/ha", "result": 70}, {"measurement": "Plant response rating, Field Poppy", "setting": "[19]; 62 g ai/ha", "result": 75}, {"measurement": "Plant response rating, Field Poppy", "setting": "[19]; 125 g ai/ha", "result": 80}, {"measurement": "Plant response rating, Pigweed", "setting": "[20]; 16 g ai/ha", "result": 55}, {"measurement": "Plant response rating, Pigweed", "setting": "[20]; 31 g ai/ha", "result": 60}, {"measurement": "Plant response rating, Pigweed", "setting": "[20]; 62 g ai/ha", "result": 70}, {"measurement": "Plant response rating, Pigweed", "setting": "[20]; 125 g ai/ha", "result": 90}, {"measurement": "Plant response rating, Geranium, Cutleaf", "setting": "[21]; 16 g ai/ha", "result": 25}, {"measurement": "Plant response rating, Geranium, Cutleaf", "setting": "[21]; 31 g ai/ha", "result": 45}, {"measurement": "Plant response rating, Geranium, Cutleaf", "setting": "[21]; 62 g ai/ha", "result": 45}, {"measurement": "Plant response rating, Geranium, Cutleaf", "setting": "[21]; 125 g ai/ha", "result": 65}]}
